Test results reported in ChEMBL document CHEMBL4007394, “Type I DNA Topoisomerases” (J Med Chem, 2017).

Experiments:
[1] = biological target: Bifunctional 3'-5' exonuclease/ATP-dependent helicase WRN (Homo sapiens, UniProt Q14191); test: Inhibition of recombinant WRN (unknown origin) helicase activity expressed in baculovirus expression system using forked duplex DNA as substrate after 15 mins by polyacrylamide gel electrophoresis
[2] = Inhibition of recombinant Streptococcus pneumoniae R6 topoisomerase-1 expressed in Escherichia coli assessed as reduction in enzyme-catalyzed relaxation of supercoiled pBR322 DNA preincubated for 10 mins by ethidium bromide staining based electrophoresis

Bifunctional 3'-5' exonuclease/ATP-dependent helicase WRN, sequence (Q14191 whole entry): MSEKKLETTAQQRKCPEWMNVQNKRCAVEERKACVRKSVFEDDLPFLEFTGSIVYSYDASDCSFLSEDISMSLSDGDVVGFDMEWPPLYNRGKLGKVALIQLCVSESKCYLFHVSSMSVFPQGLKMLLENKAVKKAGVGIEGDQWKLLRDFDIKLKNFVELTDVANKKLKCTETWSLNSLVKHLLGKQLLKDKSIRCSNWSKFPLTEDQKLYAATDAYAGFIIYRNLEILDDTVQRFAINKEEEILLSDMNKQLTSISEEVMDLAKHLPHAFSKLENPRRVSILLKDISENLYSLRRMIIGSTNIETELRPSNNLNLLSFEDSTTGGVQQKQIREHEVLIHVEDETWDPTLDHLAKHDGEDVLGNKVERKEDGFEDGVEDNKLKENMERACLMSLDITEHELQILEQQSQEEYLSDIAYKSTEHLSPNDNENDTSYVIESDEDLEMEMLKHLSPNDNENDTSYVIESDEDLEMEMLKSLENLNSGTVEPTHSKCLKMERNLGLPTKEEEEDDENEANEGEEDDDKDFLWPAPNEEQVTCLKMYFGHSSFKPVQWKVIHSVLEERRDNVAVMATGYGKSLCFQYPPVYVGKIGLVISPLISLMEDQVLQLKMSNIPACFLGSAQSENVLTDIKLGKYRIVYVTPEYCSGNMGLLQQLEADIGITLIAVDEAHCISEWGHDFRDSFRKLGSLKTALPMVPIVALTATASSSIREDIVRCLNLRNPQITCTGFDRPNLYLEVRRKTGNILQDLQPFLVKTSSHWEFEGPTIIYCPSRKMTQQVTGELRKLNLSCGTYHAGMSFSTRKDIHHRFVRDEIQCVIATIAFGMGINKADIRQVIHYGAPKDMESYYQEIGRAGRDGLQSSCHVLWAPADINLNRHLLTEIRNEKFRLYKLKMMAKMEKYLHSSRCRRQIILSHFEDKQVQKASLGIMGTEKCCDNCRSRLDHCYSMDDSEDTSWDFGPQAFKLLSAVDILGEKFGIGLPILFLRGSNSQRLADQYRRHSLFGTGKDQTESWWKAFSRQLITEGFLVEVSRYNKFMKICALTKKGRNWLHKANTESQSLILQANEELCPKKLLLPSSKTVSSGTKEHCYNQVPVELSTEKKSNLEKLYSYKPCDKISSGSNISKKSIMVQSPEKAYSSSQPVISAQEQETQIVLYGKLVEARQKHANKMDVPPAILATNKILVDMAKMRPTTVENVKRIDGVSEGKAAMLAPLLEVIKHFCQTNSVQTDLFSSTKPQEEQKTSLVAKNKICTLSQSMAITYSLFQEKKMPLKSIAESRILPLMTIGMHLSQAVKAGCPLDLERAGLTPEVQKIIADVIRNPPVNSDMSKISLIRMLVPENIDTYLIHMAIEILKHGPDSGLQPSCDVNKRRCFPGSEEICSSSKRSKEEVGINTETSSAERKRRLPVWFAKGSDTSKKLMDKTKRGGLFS

| SMILES | IC50 [1] | IC50 [2] |
| --- | --- | --- |
| CCC(=O)OCN1C(=O)C=CC1=O | 3 µM | – |
| CNCCc1cc2c(c3c1ccc1cc4c(cc13)OCO4)OCO2 | – | 17 µM |
